Measurements reported in ChEMBL document CHEMBL1201862, “PubChem BioAssay data set” (2004).
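Cultured in 96-well plates, cells were exposed to test compound for 48 hours across five concentrations. GI50: concentration for 50% inhibition of growth.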 Activity calls are given as the source filed them. No stated cut-off is given here; in the data, active = GI50 up to about 1.1 µM and inactive = higher.

Legend:
Assay in all cases: inhibition of tumour cell growth, NCI panel, 48 h
SNB-19 = system: SNB-19
M14 = system: M14
SN12C = system: SN12C
SNB-75 = system: SNB-75
NCI-H226 = system: NCI-H226
OVCAR-3 = system: OVCAR-3
SF-295 = system: SF-295
CAKI-1 = system: CAKI-1
SK-MEL-28 = system: SK-MEL-28
SK-MEL-2 = system: SK-MEL-2
MCF7 = system: MCF7
TK-10 = system: TK-10
OVCAR-8 = system: OVCAR-8
NCI/ADR-RES = system: NCI/ADR-RES
PC-3 = system: PC-3
MDA-N = system: MDA-N
UO-31 = system: UO-31
HCT-15 = system: HCT-15
IGROV-1 = system: IGROV-1
HOP-92 = system: HOP-92
A549 = system: A549
CCRF-CEM = system: CCRF-CEM
MDA-MB-231 = system: MDA-MB-231
HCC 2998 = system: HCC 2998
SW-620 = system: SW-620
U-251 = system: U-251
OVCAR-5 = system: OVCAR-5
UACC-62 = system: UACC-62
NCI-H23 = system: NCI-H23
786-0 = system: 786-0
HL-60 = system: HL-60
Hs-578T = system: Hs-578T
HOP-62 = system: HOP-62
UACC-257 = system: UACC-257
T47D = system: T47D
MDA-MB-435 = system: MDA-MB-435
DU-145 = system: DU-145
KM12 = system: KM12
RXF 393 = system: RXF 393
K562 = system: K562
NCI-H522 = system: NCI-H522
SF-268 = system: SF-268
BT-549 = system: BT-549
RPMI-8226 = system: RPMI-8226
ACHN = system: ACHN
LOX IMVI = system: LOX IMVI
HCT-116 = system: HCT-116
HT-29 = system: HT-29
SK-MEL-5 = system: SK-MEL-5
SR = system: SR
COLO 205 = system: COLO 205
SF-539 = system: SF-539
MOLT-4 = system: MOLT-4
EKVX = system: EKVX
SK-OV-3 = system: SK-OV-3
OVCAR-4 = system: OVCAR-4
Malme-3M = system: Malme-3M
NCI-H460 = system: NCI-H460

With CCOC(=O)C(NCc1cccc(C(F)(F)F)c1)(NC(=O)c1ccccc1)C(F)(F)F (stereo not given) the GI50 (SNB-19) was 71.9 µM (inactive), the GI50 (M14) was 27.8 µM (inactive) and the GI50 (SN12C) was 31.2 µM (inactive). For the same compound, the GI50 (SNB-75) was 27.4 µM (inactive), the GI50 (NCI-H226) was 27.2 µM (inactive) and the GI50 (OVCAR-3) was 22.8 µM (inactive). The GI50 (SF-295) was 44.1 µM (inactive), the GI50 (CAKI-1) was 14.4 µM (inactive) and the GI50 (SK-MEL-28) was 22.1 µM (inactive). The GI50 (SK-MEL-2) was 21.4 µM (inactive), the GI50 (MCF7) was 43.3 µM (inactive) and the GI50 (TK-10) was 30.1 µM (inactive). The GI50 (OVCAR-8) was 32.4 µM (inactive), the GI50 (NCI/ADR-RES) was 18.8 µM (inactive) and the GI50 (PC-3) was 30.5 µM (inactive). The GI50 (MDA-N) was 34 µM (inactive), the GI50 (UO-31) was 18.1 µM (inactive) and the GI50 (HCT-15) was 23.1 µM. The GI50 (IGROV-1) was 23.7 µM (inactive), the GI50 (HOP-92) was 27.2 µM (inactive) and the GI50 (A549) was 22.9 µM (inactive). For the same compound, the GI50 (CCRF-CEM) was > 100 µM (inactive), the GI50 (MDA-MB-231) was 11.5 µM (inactive) and the GI50 (HCC 2998) was 26.1 µM (inactive). For the same compound, the GI50 (SW-620) was 28.1 µM (inactive), the GI50 (U-251) was 34 µM (inactive) and the GI50 (OVCAR-5) was 71.1 µM (inactive). For the same compound, the GI50 (UACC-62) was 13.9 µM (inactive), the GI50 (NCI-H23) was 21.8 µM (inactive) and the GI50 (786-0) was 28.5 µM (inactive). For the same compound, the GI50 (HL-60) was 86.9 µM (inactive), the GI50 (Hs-578T) was 47.1 µM (inactive) and the GI50 (HOP-62) was 37.9 µM (inactive). For the same compound, the GI50 (UACC-257) was 18 µM (inactive), the GI50 (T47D) was 22.2 µM (inactive) and the GI50 (MDA-MB-435) was 24.3 µM (inactive). For the same compound, the GI50 (DU-145) was 46.5 µM (inactive), the GI50 (KM12) was 28.1 µM (inactive) and the GI50 (RXF 393) was 9.08 µM (inactive). For the same compound, the GI50 (K562) was 26.7 µM (inactive), the GI50 (NCI-H522) was 17.6 µM (inactive) and the GI50 (SF-268) was 47.9 µM (inactive). The GI50 (BT-549) was 20.5 µM (inactive), the GI50 (RPMI-8226) was 9.1 µM (inactive) and the GI50 (ACHN) was 25.9 µM (inactive). The GI50 (LOX IMVI) was 19.9 µM (inactive), the GI50 (HCT-116) was 28.5 µM (inactive) and the GI50 (HT-29) was 19.6 µM (inactive). The GI50 (SK-MEL-5) was 30.5 µM (inactive), the GI50 (SR) was > 100 µM (inactive) and the GI50 (COLO 205) was 16.4 µM (inactive). For the same compound, the GI50 (SF-539) was 24.2 µM (inactive), the GI50 (MOLT-4) was 26.1 µM (inactive) and the GI50 (EKVX) was 24.2 µM (inactive). The GI50 (SK-OV-3) was 78.3 µM (inactive), the GI50 (OVCAR-4) was 21.6 µM (inactive) and the GI50 (Malme-3M) was 21.7 µM (inactive).

In the case of COC(=O)[C@H](Cc1ccccc1)NC(=O)CCCCCCC(=O)NO, the GI50 (SNB-19) is reported as > 100 µM (inactive), the GI50 (M14) is reported as 20.9 µM (inactive) and the GI50 (SN12C) is reported as > 100 µM (inactive). For the same compound, the GI50 (NCI-H226) was 75.3 µM (inactive), the GI50 (OVCAR-3) was 10.7 µM (inactive) and the GI50 (SF-295) was 10.7 µM (inactive). The GI50 (CAKI-1) was 28.3 µM (inactive), the GI50 (SK-MEL-28) was > 100 µM (inactive) and the GI50 (SK-MEL-2) was 4.6 µM (inactive). The GI50 (MCF7) was 46.1 µM (inactive), the GI50 (TK-10) was 13.8 µM (inactive) and the GI50 (OVCAR-8) was 5.28 µM (inactive). The GI50 (NCI-H460) was 12.3 µM (inactive), the GI50 (NCI/ADR-RES) was 23.1 µM (inactive) and the GI50 (PC-3) was 8.79 µM (inactive). The GI50 (MDA-N) was 19 µM (inactive), the GI50 (UO-31) was 33.4 µM (inactive) and the GI50 (HCT-15) was 56.4 µM. For the same compound, the GI50 (IGROV-1) was 17.7 µM (inactive), the GI50 (HOP-92) was 17.3 µM (inactive) and the GI50 (A549) was 44.5 µM (inactive). For the same compound, the GI50 (CCRF-CEM) was 2.67 µM (inactive), the GI50 (MDA-MB-231) was 21.6 µM (inactive) and the GI50 (HCC 2998) was 16.1 µM (inactive). For the same compound, the GI50 (SW-620) was 11.6 µM (inactive), the GI50 (U-251) was 17.3 µM (inactive) and the GI50 (OVCAR-5) was 4.18 µM (inactive). For the same compound, the GI50 (UACC-62) was 11.5 µM (inactive), the GI50 (NCI-H23) was 26.4 µM (inactive) and the GI50 (786-0) was 28.6 µM (inactive). The GI50 (HL-60) was 6.01 µM (inactive), the GI50 (Hs-578T) was 12.6 µM (inactive) and the GI50 (UACC-257) was 10.1 µM (inactive). For the same compound, the GI50 (T47D) was 0.605 µM (active), the GI50 (MDA-MB-435) was 13.5 µM (inactive) and the GI50 (DU-145) was 7.23 µM (inactive). For the same compound, the GI50 (KM12) was 28.8 µM (inactive), the GI50 (RXF 393) was 5.05 µM (inactive) and the GI50 (K562) was 6.53 µM (inactive). The GI50 (NCI-H522) was 4.68 µM (inactive), the GI50 (SF-268) was 12.3 µM (inactive) and the GI50 (BT-549) was > 100 µM (inactive). The GI50 (RPMI-8226) was 4.62 µM (inactive), the GI50 (ACHN) was > 100 µM (inactive) and the GI50 (LOX IMVI) was 15.4 µM (inactive). The GI50 (HCT-116) was 5.15 µM (inactive), the GI50 (HT-29) was 17.6 µM (inactive) and the GI50 (SK-MEL-5) was 8.91 µM (inactive). For the same compound, the GI50 (SR) was 4.89 µM (inactive), the GI50 (COLO 205) was 54.5 µM (inactive) and the GI50 (SF-539) was 20.6 µM (inactive). For the same compound, the GI50 (MOLT-4) was 2.7 µM (inactive), the GI50 (EKVX) was > 100 µM (inactive) and the GI50 (SK-OV-3) was 15.2 µM (inactive). The GI50 (OVCAR-4) was 39.8 µM (inactive) and the GI50 (Malme-3M) was 2.65 µM (inactive).

CC(C)OP(=O)(OC(C)C)C(C)(C)O was tested, and the GI50 (SNB-19) was > 100 µM (inactive), the GI50 (M14) was > 100 µM (inactive) and the GI50 (SN12C) was > 100 µM (inactive). For the same compound, the GI50 (SNB-75) was > 100 µM (inactive), the GI50 (NCI-H226) was > 100 µM (inactive) and the GI50 (OVCAR-3) was > 100 µM (inactive). The GI50 (SF-295) was > 100 µM (inactive), the GI50 (CAKI-1) was > 100 µM (inactive) and the GI50 (SK-MEL-28) was > 100 µM (inactive). For the same compound, the GI50 (SK-MEL-2) was > 100 µM (inactive), the GI50 (MCF7) was > 100 µM (inactive) and the GI50 (TK-10) was > 100 µM (inactive). The GI50 (OVCAR-8) was > 100 µM (inactive), the GI50 (NCI/ADR-RES) was > 100 µM (inactive) and the GI50 (PC-3) was > 100 µM (inactive). For the same compound, the GI50 (MDA-N) was > 100 µM (inactive), the GI50 (UO-31) was > 100 µM (inactive) and the GI50 (HCT-15) was > 100 µM. The GI50 (IGROV-1) was > 100 µM (inactive), the GI50 (HOP-92) was > 100 µM (inactive) and the GI50 (A549) was > 100 µM (inactive). For the same compound, the GI50 (CCRF-CEM) was > 100 µM (inactive), the GI50 (MDA-MB-231) was > 100 µM (inactive) and the GI50 (HCC 2998) was > 100 µM (inactive). The GI50 (SW-620) was > 100 µM (inactive), the GI50 (U-251) was > 100 µM (inactive) and the GI50 (OVCAR-5) was > 100 µM (inactive). The GI50 (UACC-62) was > 100 µM (inactive), the GI50 (NCI-H23) was > 100 µM (inactive) and the GI50 (786-0) was > 100 µM (inactive). For the same compound, the GI50 (HL-60) was 83.2 µM (inactive), the GI50 (Hs-578T) was > 100 µM (inactive) and the GI50 (HOP-62) was > 100 µM (inactive). For the same compound, the GI50 (UACC-257) was > 100 µM (inactive), the GI50 (T47D) was > 100 µM (inactive) and the GI50 (MDA-MB-435) was > 100 µM (inactive). For the same compound, the GI50 (DU-145) was > 100 µM (inactive), the GI50 (KM12) was > 100 µM (inactive) and the GI50 (RXF 393) was > 100 µM (inactive). The GI50 (K562) was > 100 µM (inactive), the GI50 (NCI-H522) was > 100 µM (inactive) and the GI50 (SF-268) was > 100 µM (inactive). The GI50 (BT-549) was > 100 µM (inactive), the GI50 (RPMI-8226) was > 100 µM (inactive) and the GI50 (ACHN) was > 100 µM (inactive). The GI50 (LOX IMVI) was > 100 µM (inactive), the GI50 (HCT-116) was > 100 µM (inactive) and the GI50 (HT-29) was > 100 µM (inactive). For the same compound, the GI50 (SK-MEL-5) was > 100 µM (inactive), the GI50 (SR) was > 100 µM (inactive) and the GI50 (COLO 205) was > 100 µM (inactive). The GI50 (SF-539) was > 100 µM (inactive), the GI50 (MOLT-4) was > 100 µM (inactive) and the GI50 (EKVX) was > 100 µM (inactive). The GI50 (SK-OV-3) was > 100 µM (inactive), the GI50 (OVCAR-4) was > 100 µM (inactive) and the GI50 (Malme-3M) was > 100 µM (inactive).
